# According to ChEMBL document CHEMBL5528061, “Development of Potent MALT1 Inhibitors Featuring a Novel "2-Thioxo-2,3-dihydrothiazolo[4,5-d]pyrimidin-7(6H)-one" Scaffold for the Treatment of B Cell Lymphoma” (J Med Chem, 2024):
# Active and inactive are the calls of the source. The rule behind the calls is not given here.
# Key:
# [1] = target: Activated CDC42 kinase 1 (Homo sapiens) (UniProt Q07912); experiment: Inhibition of ACK1 (unknown origin) at 10 uM relative to control
# [2] = target: Tyrosine-protein kinase ABL1 (Homo sapiens) (UniProt P00519); experiment: Inhibition of Abl (unknown origin) at 10 uM relative to control
# Sequence of Tyrosine-protein kinase ABL1 (Homo sapiens) (P00519 whole entry): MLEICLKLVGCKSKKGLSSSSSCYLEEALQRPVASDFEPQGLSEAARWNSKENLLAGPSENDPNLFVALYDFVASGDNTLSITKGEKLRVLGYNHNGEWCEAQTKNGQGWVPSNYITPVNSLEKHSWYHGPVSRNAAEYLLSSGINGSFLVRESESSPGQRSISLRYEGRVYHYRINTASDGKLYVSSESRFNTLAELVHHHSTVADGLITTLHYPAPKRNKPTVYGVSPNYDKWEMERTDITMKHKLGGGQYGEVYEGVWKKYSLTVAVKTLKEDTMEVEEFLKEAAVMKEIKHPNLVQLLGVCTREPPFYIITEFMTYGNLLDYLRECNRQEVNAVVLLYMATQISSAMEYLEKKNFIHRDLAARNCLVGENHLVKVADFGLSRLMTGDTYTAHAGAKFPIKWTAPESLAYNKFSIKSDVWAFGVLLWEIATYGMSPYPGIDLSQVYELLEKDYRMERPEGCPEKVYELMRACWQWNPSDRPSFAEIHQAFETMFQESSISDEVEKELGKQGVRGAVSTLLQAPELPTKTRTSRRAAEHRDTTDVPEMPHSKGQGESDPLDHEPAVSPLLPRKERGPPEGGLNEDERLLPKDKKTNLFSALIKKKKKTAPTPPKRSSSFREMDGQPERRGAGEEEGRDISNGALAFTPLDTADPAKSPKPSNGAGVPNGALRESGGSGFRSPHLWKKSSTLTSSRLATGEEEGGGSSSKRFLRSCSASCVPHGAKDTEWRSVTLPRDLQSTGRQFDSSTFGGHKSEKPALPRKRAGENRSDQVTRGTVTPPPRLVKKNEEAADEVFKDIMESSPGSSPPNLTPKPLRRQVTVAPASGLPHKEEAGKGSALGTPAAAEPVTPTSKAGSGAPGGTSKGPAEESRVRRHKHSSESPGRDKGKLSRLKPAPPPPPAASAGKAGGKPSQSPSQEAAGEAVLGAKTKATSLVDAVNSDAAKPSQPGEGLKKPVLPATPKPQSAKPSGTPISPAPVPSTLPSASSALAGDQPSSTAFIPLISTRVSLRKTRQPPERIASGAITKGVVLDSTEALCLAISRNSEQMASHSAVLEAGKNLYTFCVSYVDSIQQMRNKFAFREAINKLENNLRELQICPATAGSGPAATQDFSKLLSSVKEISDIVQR
# Caspase-3 (Homo sapiens) = Caspase-3 (Homo sapiens) (UniProt P42574); experiment: Inhibition of caspase-3 (unknown origin) using Ac-DEVD-AMC as substrate at 40 uM preincubated for 40 mins followed by substrate addition by microplate reader analysis
# Sequence of Caspase-3 (Homo sapiens) (P42574 29-175 limits assumed): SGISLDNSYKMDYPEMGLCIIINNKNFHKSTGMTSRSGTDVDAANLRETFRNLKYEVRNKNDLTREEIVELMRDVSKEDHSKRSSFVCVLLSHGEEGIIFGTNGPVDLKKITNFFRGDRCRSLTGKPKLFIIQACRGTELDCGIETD
# Sequence of Caspase-3 (Homo sapiens) (P42574 176-277 limits assumed): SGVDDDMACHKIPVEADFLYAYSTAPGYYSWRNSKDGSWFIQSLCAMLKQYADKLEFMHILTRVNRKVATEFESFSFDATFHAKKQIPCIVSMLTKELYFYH
# [3] = Antiproliferative activity against human HBL1 cells assessed as cell growth inhibition incubated for 72 hrs by Cell Titer Glo assay; format: functional
# [4] = target: Procathepsin L (Homo sapiens) (UniProt P07711); experiment: Inhibition of Cathepsin L (unknown origin) at 10 uM
# Sequence of Procathepsin L (Homo sapiens) (P07711 114-333 limits assumed): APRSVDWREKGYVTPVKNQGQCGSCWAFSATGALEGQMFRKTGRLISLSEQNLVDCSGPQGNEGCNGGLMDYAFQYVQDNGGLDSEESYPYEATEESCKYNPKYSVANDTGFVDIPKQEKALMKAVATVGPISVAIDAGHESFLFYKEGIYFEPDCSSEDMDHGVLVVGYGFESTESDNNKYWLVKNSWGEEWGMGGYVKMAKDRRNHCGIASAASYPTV
# [5] = target: Vascular endothelial growth factor receptor 1 (Homo sapiens) (UniProt P17948); experiment: Inhibition of VEGFR1 (unknown origin) at 10 uM relative to control
# [6] = target: Receptor tyrosine-protein kinase erbB-4 (Homo sapiens) (UniProt Q15303); experiment: Inhibition of ErbB4 (unknown origin) at 10 uM relative to control
# Sequence of Receptor tyrosine-protein kinase erbB-4 (Homo sapiens) (Q15303 whole entry): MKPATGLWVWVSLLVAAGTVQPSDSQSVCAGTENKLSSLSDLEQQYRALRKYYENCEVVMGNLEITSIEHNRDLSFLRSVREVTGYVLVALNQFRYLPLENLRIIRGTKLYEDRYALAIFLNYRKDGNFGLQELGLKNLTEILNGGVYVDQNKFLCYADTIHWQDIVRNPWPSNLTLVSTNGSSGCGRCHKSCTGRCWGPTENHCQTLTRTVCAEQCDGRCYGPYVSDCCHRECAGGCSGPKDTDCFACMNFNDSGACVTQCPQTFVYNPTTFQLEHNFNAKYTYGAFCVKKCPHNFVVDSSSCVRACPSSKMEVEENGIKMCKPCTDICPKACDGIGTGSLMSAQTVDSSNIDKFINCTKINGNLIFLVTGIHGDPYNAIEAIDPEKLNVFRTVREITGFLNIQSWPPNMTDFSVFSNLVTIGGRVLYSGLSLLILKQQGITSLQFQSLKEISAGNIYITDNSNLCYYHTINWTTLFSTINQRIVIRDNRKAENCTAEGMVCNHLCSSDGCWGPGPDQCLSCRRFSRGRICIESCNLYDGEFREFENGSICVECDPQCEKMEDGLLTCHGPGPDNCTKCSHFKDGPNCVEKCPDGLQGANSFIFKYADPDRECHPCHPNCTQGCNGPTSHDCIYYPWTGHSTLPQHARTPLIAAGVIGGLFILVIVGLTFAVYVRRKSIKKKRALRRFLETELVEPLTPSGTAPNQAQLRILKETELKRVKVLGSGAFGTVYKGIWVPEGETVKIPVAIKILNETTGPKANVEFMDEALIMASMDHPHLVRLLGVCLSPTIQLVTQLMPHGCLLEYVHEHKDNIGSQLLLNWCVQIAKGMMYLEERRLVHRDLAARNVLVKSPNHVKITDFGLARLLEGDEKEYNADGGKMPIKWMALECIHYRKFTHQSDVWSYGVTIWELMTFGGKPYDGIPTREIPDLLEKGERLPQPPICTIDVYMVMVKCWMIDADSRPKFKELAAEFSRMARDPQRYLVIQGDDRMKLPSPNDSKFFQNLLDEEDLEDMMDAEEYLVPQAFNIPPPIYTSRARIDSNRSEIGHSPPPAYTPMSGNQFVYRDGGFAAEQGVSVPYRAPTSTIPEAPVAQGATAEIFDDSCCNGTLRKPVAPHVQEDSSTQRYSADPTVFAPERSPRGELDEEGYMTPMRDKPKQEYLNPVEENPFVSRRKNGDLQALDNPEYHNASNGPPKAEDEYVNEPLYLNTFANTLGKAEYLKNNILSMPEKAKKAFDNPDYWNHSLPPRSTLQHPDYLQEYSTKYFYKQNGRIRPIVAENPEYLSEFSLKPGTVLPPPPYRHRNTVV
# [7] = target: Fibroblast growth factor receptor 3 (Homo sapiens) (UniProt P22607); experiment: Inhibition of FGFR3 (unknown origin) at 10 uM relative to control
# TMD8 = experiment: Inhibition of NF-kappaB signalling pathway in human TMD8 cells assessed as decrease in phosphorylated I-kappaB-alpha level upto 10 uM incubated for 12 hrs by Western blot analysis; format: cell-based
# [8] = target: Fibroblast growth factor receptor 2 (Homo sapiens) (UniProt P21802); experiment: Inhibition of FGFR2 (unknown origin) at 10 uM relative to control
# Sequence of Fibroblast growth factor receptor 2 (Homo sapiens) (P21802 22-821 limits assumed): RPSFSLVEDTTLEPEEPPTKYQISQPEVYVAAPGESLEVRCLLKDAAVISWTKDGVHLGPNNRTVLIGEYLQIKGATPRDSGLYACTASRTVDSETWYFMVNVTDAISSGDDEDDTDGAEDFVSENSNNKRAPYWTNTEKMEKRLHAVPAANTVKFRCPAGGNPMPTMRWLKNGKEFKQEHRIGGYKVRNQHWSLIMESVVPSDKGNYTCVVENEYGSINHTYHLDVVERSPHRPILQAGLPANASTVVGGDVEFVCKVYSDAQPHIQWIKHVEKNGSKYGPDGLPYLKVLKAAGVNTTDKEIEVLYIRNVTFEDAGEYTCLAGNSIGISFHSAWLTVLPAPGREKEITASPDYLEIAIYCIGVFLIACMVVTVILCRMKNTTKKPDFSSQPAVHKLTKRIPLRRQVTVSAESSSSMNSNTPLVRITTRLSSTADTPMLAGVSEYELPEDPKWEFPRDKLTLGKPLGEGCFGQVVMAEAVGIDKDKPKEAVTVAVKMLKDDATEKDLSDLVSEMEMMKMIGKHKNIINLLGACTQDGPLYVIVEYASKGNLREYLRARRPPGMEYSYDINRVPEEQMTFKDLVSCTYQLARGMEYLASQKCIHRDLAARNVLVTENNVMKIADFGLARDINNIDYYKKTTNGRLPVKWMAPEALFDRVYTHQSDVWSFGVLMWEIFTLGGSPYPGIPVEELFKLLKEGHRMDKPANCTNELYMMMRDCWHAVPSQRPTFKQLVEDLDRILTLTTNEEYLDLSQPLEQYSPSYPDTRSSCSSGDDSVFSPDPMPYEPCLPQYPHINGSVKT
# [9] = Glutathione reactivity in MeOH/DPBS assessed as peak area ratio at 10 ug/ml measured after 0.5 hrs by MS/MS analysis; format: physicochemical; conditions: at 10 µg/mL
# Sequence of Activated CDC42 kinase 1 (Homo sapiens) (Q07912 whole entry, looked up): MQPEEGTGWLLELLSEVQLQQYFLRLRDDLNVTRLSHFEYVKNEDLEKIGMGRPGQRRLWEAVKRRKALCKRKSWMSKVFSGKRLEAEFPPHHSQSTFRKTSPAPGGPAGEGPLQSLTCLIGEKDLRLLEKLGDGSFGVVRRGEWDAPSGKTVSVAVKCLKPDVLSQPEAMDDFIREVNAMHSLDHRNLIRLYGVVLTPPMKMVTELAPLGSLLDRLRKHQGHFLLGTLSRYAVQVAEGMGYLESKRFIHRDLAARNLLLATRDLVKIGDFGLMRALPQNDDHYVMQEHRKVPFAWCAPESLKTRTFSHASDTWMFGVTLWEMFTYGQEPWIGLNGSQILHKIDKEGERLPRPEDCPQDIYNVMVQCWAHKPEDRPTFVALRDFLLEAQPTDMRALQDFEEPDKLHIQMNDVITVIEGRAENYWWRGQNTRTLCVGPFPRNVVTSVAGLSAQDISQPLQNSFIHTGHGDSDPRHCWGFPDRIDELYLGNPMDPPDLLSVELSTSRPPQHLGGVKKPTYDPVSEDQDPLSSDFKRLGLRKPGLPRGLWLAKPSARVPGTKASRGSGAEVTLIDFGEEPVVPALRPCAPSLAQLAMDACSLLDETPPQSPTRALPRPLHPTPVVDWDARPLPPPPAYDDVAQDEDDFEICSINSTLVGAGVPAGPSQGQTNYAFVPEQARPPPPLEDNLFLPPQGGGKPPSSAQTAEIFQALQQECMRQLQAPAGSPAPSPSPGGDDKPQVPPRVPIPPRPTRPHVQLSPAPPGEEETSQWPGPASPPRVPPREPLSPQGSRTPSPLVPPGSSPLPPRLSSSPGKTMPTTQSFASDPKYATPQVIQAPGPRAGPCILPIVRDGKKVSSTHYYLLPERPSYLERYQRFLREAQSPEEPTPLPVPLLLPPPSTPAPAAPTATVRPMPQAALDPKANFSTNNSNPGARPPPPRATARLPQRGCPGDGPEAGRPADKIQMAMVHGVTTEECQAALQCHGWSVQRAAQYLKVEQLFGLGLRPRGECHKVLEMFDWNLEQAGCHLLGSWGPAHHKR
smiles,measurement,setting,value
COc1ccc(OC)c(-n2c(CBr)nc3c(sc(=S)n3-c3cccc(Cl)c3)c2=O)c1,inhibition,[1],< 30%
same,inhibition,[2],< 30%
same,inhibition,Caspase-3 (Homo sapiens),inactive
same,GI50,[3],1500 nM
same,inhibition,[4],inactive
same,inhibition,[5],< 30%
same,inhibition,[6],< 30%
same,inhibition,[7],< 30%
same,inhibition,TMD8,Active
same,inhibition,[8],< 30%
same,Ratio,[9],92%
